Like-named read-outs stand apart in the source and are kept apart here.
Legend:
[1] = biological target: T1, pOBP-SAM (pOBP-F88W immobilized on gold gate) (Sus scrofa, UniProt P81245, F88W); test: WGOFET with pOBP-SAM gate: binding curves from ΔI/I electronic response; design: species or system porcine; conditions: for α (Hill degree of cooperativity): Hill's isotherm fit of binding curve of Fig. 5b; for Kd: pOBP-SAM gate, fit of ΔI/I binding curve of Fig. 5b; for ΔC/C, fractional change of pOBP-SAM capacitance (measured chiral response): at saturation, extracted from source-drain current (Fig. 8a); for plateau response at saturation (ΔI/I): best-fit parameter of binding curve of Fig. 5b, IDS at VG=−0.5 V; for WGOFET response at saturation: binding curves of Fig. 5b; for maximum fractional decrease of IDS: control experiment of Fig. 6: same pOBP-SAM gate exposed alternately to the two enantiomers, rinsed between exposures
T1 construct: His6 (N); made in house; host or cells: Escherichia coli BL21(DE3), pET5b vector
T1 sequence (P81245 1-157 F88W): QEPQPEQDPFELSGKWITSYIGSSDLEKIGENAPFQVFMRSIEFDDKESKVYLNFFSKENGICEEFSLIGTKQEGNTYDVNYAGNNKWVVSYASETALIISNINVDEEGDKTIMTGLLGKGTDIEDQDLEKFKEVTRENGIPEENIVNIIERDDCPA
From the text: where Ci≈COBP is the capacitance per unit area. In Fig. 5a, the pOBP-WGOFET transfer-characteristics (IDS versus VG at VDS=−0.5 V) are reported for a device gated with a pristine pOBP-SAM (baseline, red curve) along with the traces measured after exposing the pOBP-SAM to progressively higher concentrations of (S)-(+)carvone (signal, black curves). Apparently, a significant degree of current decrease can be measured even at very low ligand concentrations. In the Supplementary Fig. 8, the gate leakage currents (IG) for the data of Fig. 5a are reported for comparison. […] From the transfer curve the COBP and μFET product, as well as the VT values are extracted. μFET can be as high as (1.1±0.2) × 10^−1 cm^2 V^−1 s^−1, showing a very good level of performance for the pOBP-SAM WGOFET[37]. The fractional current decrease upon binding was evaluated from the transfer curves as ΔI/I=[(I−I0)I0^−1] with I and I0 being IDS values at VG=−0.5 V for the signal and for the base-line curves, respectively. ΔI/I was taken as the WGOFET electronic response as this normalizes the device-to-device variation in FET biosensors, resulting in high response reproducibility.
The fitting of the (S)-(+)-carvone binding curve (red solid line in Fig. 5b) is performed using Langmuir’s isotherm Y=bMAX(X/(KFET+X)), where Y is the ΔI/I electronic response proportional, through bmax, to the degree of saturation. X is the ligand concentration and KFET is the dissociation constant. The fitting of the (R)-(−)-carvone (magenta solid curve in Fig. 5b) was calculated using Hill’s binding model, also used to model the data relevant to the 2-phenylethanol (blue curve). The Hill’s equation is Y=bMAX(X^α/(KFET+X^α)), with α giving the degree of cooperativity (α=1 for non-cooperative, α>1 and α<1 for positive and negative cooperativity, respectively). The fit of the S-(+)-carvone data to a Langmuir’s non-cooperative binding isotherm[39] returns a dissociation constant KFET^+=0.81±0.05 nM and a plateau response at a saturation of (ΔI/I)^+=0.62±0.01, while the limit-of-detection is 50 pM and the limit-of-quantification is 150 pM. The detection of carvone enantiomers here performed is about 6 orders of magnitude better than the determinations performed with a back-gate device. A comparison between the two systems is not straightforward as they hold different device structures and different recognition elements. However, it is a fact that in the WGOFET a direct interaction between the bio-recognition element layer and an electronic interface, is created. The R-(−)-carvone data could only be accounted for by a Hill’s binding isotherm[38] that, through the α coefficient, models the extent of cooperativity of a given binding site. […] The fitting of the S-(+)-carvone to the Hill’s isotherm, performed as control, returns a KFET=0.4±0.2 nM and an α=1.1±0.1, consistent with the Langmuir’s fit. The errors are taken as 1 s.d., as for all data presented.
PBTTT-C14 was dissolved (7 mg ml^−1) in a mixture of 1,2-dichlorobenzene and chloroform (9:1). Gold source (S) and drain (D) interdigitated electrodes were photo-lithographically defined on a flexible substrate. The distance between two differently biased fingers is the channel length (L), while the perimeter of each set of equipotential fingers is the channel width (W); they are 5 μm and 10^4 μm, respectively. The substrate with patterned electrodes was spin coated with a PBTTT-C14 solution at 7,000 r.p.m. for 60 s and annealed at 120 °C for 10 min. A gold plate with an area of ~3 10^−2 cm^2 served as the gate (G) electrode. The SAM functionalizing protocol[52] involved a 50 mM solution of 3-mercaptopropionic acid (3MPA) in ethanol containing 5% acetic acid. N2 was bubbled through the 3MPA solution for at least 10 min to remove dissolved oxygen. The gold electrodes were immersed into the 3MPA solution and kept in the dark under N2 for 18 h at 22 °C. […]

pOBP-mutant-F88W = biological target: T2, pOBP-mutant-F88W (Sus scrofa, UniProt P81245, F88W); test: Competitive fluorescent binding assay of pOBP in solution (1-AMA probe); design: species or system porcine; conditions: pOBP and 1-AMA probe at 1 μM, 10 mM phosphate buffer pH 7.4, room temperature, calculated from IC50, read-out: dissociation constant KSol
T2 construct: His6 (N); made in house; host or cells: Escherichia coli BL21(DE3), pET5b vector
T2 sequence (P81245 1-157 F88W): T1 sequence (P81245 1-157 F88W)
Method: Emission fluorescence spectra were recorded using a Perkin Elmer LS55 instrument at room temperature, with a 1 cm light path quartz cuvette and 5 nm slits for both excitation and emission. The affinity of binding of pOBP was measured using the fluorescence probe 1-AMA as previously reported. About 1 μM pOBP-F88W solution in 10 mM phosphate buffer, pH 7.4, was titrated with aliquots of 1 mM 1-AMA in methanol to final concentrations of 0.25–8 μM. The probe was excited at 375 nm and the fluorescence spectra were recorded between 400 to 570 nm, monitoring the signals between 480 and 490 nm. The dissociation constant (K1-AMA) for the OBP/1-AMA complex was calculated using the equation y=(Bmax × x)/(K1-AMA+x), where y is the degree of saturation, Bmax is the number of maximum binding sites, and K1-AMA is the dissociation constant. The calculation was run using the software Sigma Plot and a single binding site was considered for the OBP.
The affinity of pOBP-F88W towards S-(+)-carvone and R-(−)-carvone and 2-phenylethanol was measured in competitive binding assays, using both pOBP and probe at 1 μM as the final concentration. The ligand solutions, with concentrations ranging from 2 to 20 μM, were prepared in 10 mM phosphate buffer pH 7.4 and used for the binding experiments. Dissociation constants of competitors were calculated from the corresponding IC50 values, using the equation: KSol=[IC50]/1+[1-AMA]/K1-AMA, where [1-AMA] is the free concentration of the fluorescence probe and K1-AMA is the dissociation constant of the complex OBP/1-AMA.

human = system: human; design: method as in earlier work; conditions: perceived as spearmint or caraway odours; cited from earlier work
[2] = read-out: dissociation constant KFET (Hill's isotherm fit)

| SMILES | α (Hill degree of cooperativity) [1] | Kd [1, 2] | Kd (pOBP-mutant-F88W) | ΔC/C, fractional change of pOBP-SAM capacitance (measured chiral response) [1] | plateau response at saturation (ΔI/I) [1] | WGOFET response at saturation [1] | maximum fractional decrease of IDS [1] | human threshold for detection (odour) (human) | limit-of-detection ([1]; pOBP-SAM WGOFET) | limit-of-quantification ([1]; pOBP-SAM WGOFET) | Kd ([1]; three devices, read-out: dissociation constant KFET (Langmuir's isotherm fit)) |
| --- | --- | --- | --- | --- | --- | --- | --- | --- | --- | --- | --- |
| OCCc1ccccc1 [2-phenylethanol] | 0.3±0.1 | 700 ± 330 nM | ~40000 nM |  |  |  |  |  |  |  |  |
| C=C(C)[C@@H]1CC=C(C)C(=O)C1 [(R)-(−)-carvone] | 0.5±0.1 | 20 ± 20 nM | 1220 ± 50 nM | −0.17 | 0.17±0.02 | < 20% | much higher response at saturation | 30 nM |  |  |  |
| C=C(C)[C@H]1CC=C(C)C(=O)C1 [(S)-(+)-carvone] | 1.1±0.1 | 0.4 ± 0.2 nM | 500 ± 10 nM | −0.485 | 0.62±0.01 | > 60% | ~ 60% | 420 nM | 50 pM | 150 pM | 0.81 ± 0.05 nM |
